Patent US20260226073A1 (AURIGENE ONCOLOGY LIMITED, priority 2023, published 2026)

What was measured:
[1] = test system: NFAT signaling pathway in Jurkat NFAT reporter cells; assay: Jurkat NFAT reporter assay; format: cell-based; settings: Homo sapiens, 30 min with compound, then soluble anti-human CD3/CD28 antibody for 6 hours, luciferase readout, read-out: EC50 (Group)
Procedure, shortened: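 Jurkat cells bearing an NFAT-RE-driven luciferase reporter (1×10^5 per well) preincubated with Cbl-b inhibitor for 30 min, then stimulated 6 h with soluble anti-CD3/CD28. Luminescence read with Bio-Glo; values are fold change over anti-CD3/CD28-stimulated cells without inhibitor.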

[2] = target: T1, human recombinant CBL-b (human Biotin CBL-b recombinant protein a.a. 39-426) (Homo sapiens, UniProt Q13191); assay: Biochemical assay for CBL-b inhibition (ligand displacement TR-FRET); format: binding; settings: 50 nM CBL-b, 0.3 μM Bodipy FL-Probe, read-out: IC50 (CBL-b inhibition, group)
T1 construct: human Biotin CBL-b recombinant protein a.a; 39-426; Biotin (biotinylated); made in house
Procedure, shortened: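 Biotinylated CBL-b (a.a. 39-426, 50 nM final) pre-incubated with compound 60 min at RT in HEPES/NaCl/Triton/BSA/TCEP buffer, then Bodipy FL probe (0.3 μM final) 60 min, then terbium-streptavidin 60 min. TR-FRET read at 665/615 nm; IC50 and % max inhibition from sigmoidal fits.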

T1 sequence (Q13191 39-426): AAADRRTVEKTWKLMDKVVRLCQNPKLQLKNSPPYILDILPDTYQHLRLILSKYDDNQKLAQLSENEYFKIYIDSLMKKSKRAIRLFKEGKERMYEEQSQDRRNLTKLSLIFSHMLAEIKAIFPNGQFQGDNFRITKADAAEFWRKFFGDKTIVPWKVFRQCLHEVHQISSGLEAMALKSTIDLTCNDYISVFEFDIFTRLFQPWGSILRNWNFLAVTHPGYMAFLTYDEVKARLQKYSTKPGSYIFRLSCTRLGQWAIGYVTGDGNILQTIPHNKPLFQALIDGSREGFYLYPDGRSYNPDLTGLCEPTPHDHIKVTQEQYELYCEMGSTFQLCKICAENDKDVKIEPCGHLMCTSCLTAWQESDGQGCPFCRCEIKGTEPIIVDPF

| Structure (SMILES) | EC50 [1] [nM] | IC50 [2] [nM] |
| --- | --- | --- |
| Cn1cnnc1-c1cc(Cl)ccc1-c1ccc2c(c1)C(=O)N(c1cc(CNC3CCCC3)cc(Cl)n1)C2 [Compound 106, 6-(4-Chloro-2-(4-methyl-4H-1,2,4-triazol-3-yl)phenyl)-2-(6-chloro-4-((cyclo-pentylamino)methyl)pyridin-2-yl)isoindolin-1-one] | 300 to 1000 | 80 to 300 |
| CC(NCC1CCC1)c1cc(Cl)nc(N2Cc3ccc(-c4ccc(Cl)cc4-c4nncn4C)cc3C2=O)c1 (stereo not shown) [Compound 107, 6-(4-Chloro-2-(4-methyl-4H-1,2,4-triazol-3-yl)phenyl)-2-(6-chloro-4-(1-((cyclo-butylmethyl)amino)ethyl)pyridin-2-yl)isoindolin-1-one] | < 300 | < 80 |
| C[C@H]1CCCN(Cc2cc(Cl)nc(N3Cc4ccc(-c5ccc(C#N)cc5-c5nncn5C)cc4C3=O)c2)C1 [Compound 112, (S)-4-(2-(6-Chloro-4-((3-methylpiperidin-1-yl)methyl)pyridin-2-yl)-3-oxoiso-indolin-5-yl)-3-(4-methyl-4H-1,2,4-triazol-3-yl)benzonitrile] | < 300 | < 80 |
| C[C@H]1CCCN(Cc2cc(Cl)nc(N3Cc4ccc(-c5ccc(Cl)cc5-c5nncn5C)cc4C3=O)c2)C1 [Compound 113, (S)-6-(4-Chloro-2-(4-methyl-4H-1,2,4-triazol-3-yl)phenyl)-2-(6-chloro-4-((3-methylpiperidin-1-yl)methyl)pyridin-2-yl)isoindolin-1-one] | < 300 | < 80 |
| Cn1cnnc1-c1ccccc1-c1ccc2c(c1)C(=O)N(c1cc(CNCCC(F)(F)F)cc(Cl)n1)C2 [Compound 116, 2-(6-Chloro-4-(((3,3,3-trifluoropropyl)amino)methyl)pyridin-2-yl)-6-(2-(4-methyl-4H-1,2,4-triazol-3-yl)phenyl)isoindolin-1-one] | 1000 to 10000 | < 80 |
| C[C@@H]1C[C@H](C)CN(Cc2cc(N3Cc4ccc(-c5ccccc5-c5nncn5C)cc4C3=O)nc(C(F)(F)F)c2)C1 [Compound 117, 2-(4-(((3S,5R)-3,5-Dimethylpiperidin-1-yl)methyl)-6-(trifluoromethyl)pyridin-2-yl)-6-(2-(4-methyl-4H-1,2,4-triazol-3-yl)phenyl)isoindolin-1-one] | 1000 to 10000 | 80 to 300 |
| CC(NCC1CC(F)(F)C1)c1cc(Cl)nc(N2Cc3ccc(-c4ccc(Cl)cc4-c4nncn4C)cc3C2=O)c1 (stereo not shown) [Compound 121, 6-(4-Chloro-2-(4-methyl-4H-1,2,4-triazol-3-yl)phenyl)-2-(6-chloro-4-(1-(((3,3-difluorocyclobutyl)methyl)amino)ethyl)pyridin-2-yl)isoindolin-1-one] | < 300 | < 80 |
| CC(NCc1cc(Cl)nc(N2Cc3ccc(C4(Cc5nncn5C)COC4)cc3C2=O)c1)C1CC1 (stereo not shown) [Compound 131, 2-(6-Chloro-4-(((1-cyclopropylethyl)amino)methyl)pyridin-2-yl)-6-(3-((4-methyl-4H-1,2,4-triazol-3-yl)methyl)oxetan-3-yl)isoindolin-1-one] | < 300 | < 80 |
| C[C@@H]1C[C@H](C)CN(Cc2cc(N3Cc4ccc(C5(Cc6nncn6C)CC(C#N)C5)cc4C3=O)nc(C(F)(F)F)c2)C1 (stereo partly shown) [Compound 143] | < 300 | < 80 |
| Cn1cnnc1CC1(c2ccc3c(c2)C(=O)N(c2cc(CNCC4CCC4)cc(Cl)n2)C3)COC1 [Compound 144, 2-(6-Chloro-4-(((cyclobutylmethyl)amino)methyl)pyridin-2-yl)-6-(3-((4-methyl-4H-1,2,4-triazol-3-yl)methyl)oxetan-3-yl)isoindolin-1-one] | < 300 | < 80 |
| Cn1cnnc1CC1(c2ccc3c(c2)C(=O)N(c2cc(CNCC4CC4)cc(Cl)n2)C3)CCC1 [Compound 145, 2-(6-Chloro-4-(((cyclopropylmethyl)amino)methyl)pyridin-2-yl)-6-(1-((4-methyl-4H-1,2,4-triazol-3-yl)methyl)cyclobutyl)isoindolin-1-one] | < 300 | < 80 |
| Cc1cc(CNCC2CC2)cc(N2Cc3ccc(C4(Cc5nncn5C)COC4)cc3C2=O)n1 [Compound 147, 2-(4-(((Cyclopropylmethyl)amino)methyl)-6-methylpyridin-2-yl)-6-(3-((4-methyl-4H-1,2,4-triazol-3-yl)methyl)oxetan-3-yl)isoindolin-1-one] | 300 to 1000 | < 80 |
| CCC1CCCN(Cc2cc(Cl)nc(N3Cc4ccc(C5(Cc6nncn6C)COC5)cc4C3=O)c2)C1 (stereo not shown) [Compound 148, 2-(6-Chloro-4-((3-ethylpiperidin-1-yl)methyl)pyridin-2-yl)-6-(3-((4-methyl-4H-1,2,4-triazol-3-yl)methyl)oxetan-3-yl)isoindolin-1-one] | < 300 | < 80 |
| Cn1cnnc1CC1(c2ccc3c(c2)C(=O)N(c2cc(CNCCC(F)(F)F)cc(Cl)n2)C3)CCC1 [Compound 151, 2-(6-Chloro-4-(((3,3,3-trifluoropropyl)amino)methyl)pyridin-2-yl)-6-(1-((4-methyl-4H-1,2,4-triazol-3-yl)methyl)cyclobutyl)isoindolin-1-one] | < 300 | < 80 |
| C[C@H]1CCCN(Cc2cc(Cl)nc(N3Cc4ccc(C5(Cc6nncn6C)CC(F)(F)C5)cc4C3=O)c2)C1 [Compound 152, (S)-2-(6-Chloro-4-((3-methylpiperidin-1-yl)methyl)pyridin-2-yl)-6-(3,3-difluoro-1-((4-methyl-4H-1,2,4-triazol-3-yl)methyl)cyclobutyl)isoindolin-1-one] | < 300 | < 80 |
| Cn1cnnc1CC1(c2ccc3c(c2)C(=O)N(c2cc(CNCC4CC4)cc(Cl)n2)C3)CC(C#N)C1 (stereo not shown) [Compound 156] | 300 to 1000 | < 80 |
| Cn1cnnc1CC1(c2ccc3c(c2)C(=O)N(c2cc(CN4CCCCCC4)cc(Cl)n2)C3)COC1 [Compound 157] | < 300 | < 80 |
| Cn1cnnc1CC1(c2ccc3c(c2)C(=O)N(c2cc(CNCCC(F)(F)F)cc(Cl)n2)C3)CC(C#N)C1 (stereo not shown) [Compound 158, 3-(2-(6-Chloro-4-(((3,3,3-trifluoropropyl)amino)methyl)pyridin-2-yl)-3-oxoisoindolin-5-yl)-3-((4-methyl-4H-1,2,4-triazol-3-yl)methyl)cyclobutane-1-carbonitrile] | 1000 to 10000 | < 80 |

More lines, now with the values ahead:

| EC50 [1] [nM] | IC50 [2] [nM] | Structure (SMILES) |
| --- | --- | --- |
| < 300 | < 80 | Cn1cnnc1-c1cc(Cl)ccc1-c1ccc2c(c1)C(=O)N(c1cc(CNCC3CC3)cc(Cl)n1)C2 [Compound 102, 6-(4-Chloro-2-(4-methyl-4H-1,2,4-triazol-3-yl)phenyl)-2-(6-chloro-4-(((cyclopropylmethyl)amino)methyl)pyridin-2-yl)isoindolin-1-one] |
| < 300 | < 80 | Cc1cc(C(C)NCC2CC2)cc(N2Cc3ccc(-c4ccc(Cl)cc4-c4nncn4C)cc3C2=O)n1 (stereo not shown) [Compound 103, 6-(4-Chloro-2-(4-methyl-4H-1,2,4-triazol-3-yl)phenyl)-2-(4-(1-((cyclopropylmethyl)amino)ethyl)-6-methylpyridin-2-yl)isoindolin-1-one] |
| 300 to 1000 | < 80 | Cn1cnnc1-c1cc(Cl)ccc1-c1ccc2c(c1)C(=O)N(c1cc(Cl)cc(CNCC3CC3)c1)C2 [Compound 119, 6-(4-Chloro-2-(4-methyl-4H-1,2,4-triazol-3-yl)phenyl)-2-(3-chloro-5-(((cyclo-propylmethyl)amino)methyl)phenyl)isoindolin-1-one] |
| < 300 | < 80 | Cc1cc(CNC(C)C2CC2)cc(N2Cc3ccc(-c4ccc(Cl)cc4-c4nncn4C)cc3C2=O)n1 (stereo not shown) [Compound 122, 6-(4-Chloro-2-(4-methyl-4H-1,2,4-triazol-3-yl)phenyl)-2-(4-(((1-cyclopropyl-ethyl)amino)methyl)-6-methylpyridin-2-yl)isoindolin-1-one] |
| < 300 | < 80 | Cc1cc(CNCC2CC2)cc(N2Cc3ccc(-c4ccc(F)cc4-c4nncn4C)cc3C2=O)n1 [Compound 127, 2-(4-(((Cyclopropylmethyl)amino)methyl)-6-methylpyridin-2-yl)-6-(4-fluoro-2-(4-methyl-4H-1,2,4-triazol-3-yl)phenyl)isoindolin-1-one] |
| < 300 | < 80 | Cn1cnnc1-c1cc(Cl)ccc1-c1ccc2c(c1)C(=O)N(c1cc(CNCC3CC3)cc(C(F)(F)F)n1)C2 [Compound 132, 6-(4-Chloro-2-(4-methyl-4H-1,2,4-triazol-3-yl)phenyl)-2-(4-(((cyclopropylmethyl)amino)methyl)-6-(trifluoromethyl)pyridin-2-yl)isoindolin-1-one] |
| 1000 to 10000 | < 80 | Cc1nc(CNCC2CC2)cc(N2Cc3ccc(-c4ccc(F)cc4-c4nncn4C)cc3C2=O)n1 [Compound 133, 2-(6-(((Cyclopropylmethyl)amino)methyl)-2-methylpyrimidin-4-yl)-6-(4-fluoro-2-(4-methyl-4H-1,2,4-triazol-3-yl)phenyl)isoindolin-1-one] |
| < 300 | < 80 | Cc1cc(CNCC2CCC2)cc(N2Cc3ccc(-c4ccc(F)cc4-c4nncn4C)cc3C2=O)n1 [Compound 134, 2-(4-(((Cyclobutylmethyl)amino)methyl)-6-methylpyridin-2-yl)-6-(4-fluoro-2-(4-methyl-4H-1,2,4-triazol-3-yl)phenyl)isoindolin-1-one] |
